Assay results as given in patent US20050282743A1, “Molecular interactions in cells” (Arbor Vita Corporation, priority 2001, published 2005).
Read-outs that look alike come from different tables or passages of the source. Blank lines part the entries; values can stand above or below the compound they belong to. Peptide text beside a SMILES is read from it. * marks the point of attachment. Biotin = O=C1N[C@H]2[C@H](CS[C@H]2CCCCC(=O)*)N1

Legend:
Assay type in all cases: binding
[1] = target: PDZ-domain polypeptide (GST/PDZ fusion protein); test: Apparent affinity (Kd) by titration of PL peptide in the G assay; details: read-out: Peptide Optimal Conc (Kd by titration of the PL peptide)
In short: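 A fixed concentration of GST/PDZ fusion protein, 5 ug/ml by default, was mixed in solution with increasing labeled PL peptide (e.g. 0.1 uM-1 mM). Reaction times ranged from 10 minutes to 2 days at 4-37° C. Complexes were separated from free peptide and detected via the label as in the G assay, apparent affinity coming from the saturating concentration.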

[2] = target: T1, PDZ protein (GST-PDZ fusion) (Homo sapiens, UniProt Q86UL8); test: G' assay (10 uM PL peptide), results of TABLE 7 and TABLE 12
T1 construct: made in house; host or cells: E. coli (DH5alpha, BL21 or JM109)
In short: (§1)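 Binding classes derive from A450 nm of bound biotin-tagged PL peptide. A score of 5 needs A450 above 4 in more than two repeats.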

[3] = target: T2, PDZ protein (GST-PDZ fusion) (Homo sapiens, UniProt Q13796); test: as above; details: PDZ hAPXL, PDZ Domain 1
T2 construct: made in house; host or cells: E. coli (DH5alpha, BL21 or JM109)
In short: as §1

[4] = target: T3, PDZ protein (GST-PDZ fusion) (Homo sapiens, UniProt Q14160); test: as above
T3 construct: made in house; host or cells: E. coli (DH5alpha, BL21 or JM109)
In short: as §1

[5] = target: T4, PDZ protein (GST-PDZ fusion) (Homo sapiens, UniProt Q9P202); test: as above; details: PDZ KIAA1526, PDZ Domain 1
T4 construct: made in house; host or cells: E. coli (DH5alpha, BL21 or JM109)
T4 sequence (Q9P202 1-907): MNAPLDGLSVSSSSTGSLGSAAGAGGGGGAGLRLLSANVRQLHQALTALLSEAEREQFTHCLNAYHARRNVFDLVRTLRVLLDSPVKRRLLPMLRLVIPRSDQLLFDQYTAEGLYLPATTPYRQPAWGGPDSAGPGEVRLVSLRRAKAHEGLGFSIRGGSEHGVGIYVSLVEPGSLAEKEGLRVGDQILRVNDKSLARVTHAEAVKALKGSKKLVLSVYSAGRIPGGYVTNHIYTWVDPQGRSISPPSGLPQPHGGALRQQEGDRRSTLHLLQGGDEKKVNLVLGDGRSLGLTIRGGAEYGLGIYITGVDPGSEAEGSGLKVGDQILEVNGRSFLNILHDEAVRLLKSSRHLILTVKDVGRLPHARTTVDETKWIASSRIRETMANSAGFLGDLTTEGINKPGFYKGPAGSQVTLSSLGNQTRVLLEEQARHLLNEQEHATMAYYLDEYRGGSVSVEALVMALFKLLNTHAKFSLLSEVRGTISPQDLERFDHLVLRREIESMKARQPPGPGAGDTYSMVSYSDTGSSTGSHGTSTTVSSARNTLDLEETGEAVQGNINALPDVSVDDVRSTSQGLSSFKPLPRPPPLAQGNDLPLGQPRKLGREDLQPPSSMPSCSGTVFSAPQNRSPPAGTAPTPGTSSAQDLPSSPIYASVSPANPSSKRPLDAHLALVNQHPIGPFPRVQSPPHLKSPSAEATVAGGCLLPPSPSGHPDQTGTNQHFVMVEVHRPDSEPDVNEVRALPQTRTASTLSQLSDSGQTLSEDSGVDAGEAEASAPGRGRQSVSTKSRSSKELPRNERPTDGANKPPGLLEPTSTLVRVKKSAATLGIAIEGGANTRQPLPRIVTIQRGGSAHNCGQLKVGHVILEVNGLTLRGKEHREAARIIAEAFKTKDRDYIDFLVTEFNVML
In short: as §1

[6] = PDZ atrophin-1 interacting Protein, PDZ Domain 1
[7] = PDZ Atrophin-1 Inter. Prot., PDZ Domain 5

T3 sequence (Q14160 whole entry, the tested form may be a part): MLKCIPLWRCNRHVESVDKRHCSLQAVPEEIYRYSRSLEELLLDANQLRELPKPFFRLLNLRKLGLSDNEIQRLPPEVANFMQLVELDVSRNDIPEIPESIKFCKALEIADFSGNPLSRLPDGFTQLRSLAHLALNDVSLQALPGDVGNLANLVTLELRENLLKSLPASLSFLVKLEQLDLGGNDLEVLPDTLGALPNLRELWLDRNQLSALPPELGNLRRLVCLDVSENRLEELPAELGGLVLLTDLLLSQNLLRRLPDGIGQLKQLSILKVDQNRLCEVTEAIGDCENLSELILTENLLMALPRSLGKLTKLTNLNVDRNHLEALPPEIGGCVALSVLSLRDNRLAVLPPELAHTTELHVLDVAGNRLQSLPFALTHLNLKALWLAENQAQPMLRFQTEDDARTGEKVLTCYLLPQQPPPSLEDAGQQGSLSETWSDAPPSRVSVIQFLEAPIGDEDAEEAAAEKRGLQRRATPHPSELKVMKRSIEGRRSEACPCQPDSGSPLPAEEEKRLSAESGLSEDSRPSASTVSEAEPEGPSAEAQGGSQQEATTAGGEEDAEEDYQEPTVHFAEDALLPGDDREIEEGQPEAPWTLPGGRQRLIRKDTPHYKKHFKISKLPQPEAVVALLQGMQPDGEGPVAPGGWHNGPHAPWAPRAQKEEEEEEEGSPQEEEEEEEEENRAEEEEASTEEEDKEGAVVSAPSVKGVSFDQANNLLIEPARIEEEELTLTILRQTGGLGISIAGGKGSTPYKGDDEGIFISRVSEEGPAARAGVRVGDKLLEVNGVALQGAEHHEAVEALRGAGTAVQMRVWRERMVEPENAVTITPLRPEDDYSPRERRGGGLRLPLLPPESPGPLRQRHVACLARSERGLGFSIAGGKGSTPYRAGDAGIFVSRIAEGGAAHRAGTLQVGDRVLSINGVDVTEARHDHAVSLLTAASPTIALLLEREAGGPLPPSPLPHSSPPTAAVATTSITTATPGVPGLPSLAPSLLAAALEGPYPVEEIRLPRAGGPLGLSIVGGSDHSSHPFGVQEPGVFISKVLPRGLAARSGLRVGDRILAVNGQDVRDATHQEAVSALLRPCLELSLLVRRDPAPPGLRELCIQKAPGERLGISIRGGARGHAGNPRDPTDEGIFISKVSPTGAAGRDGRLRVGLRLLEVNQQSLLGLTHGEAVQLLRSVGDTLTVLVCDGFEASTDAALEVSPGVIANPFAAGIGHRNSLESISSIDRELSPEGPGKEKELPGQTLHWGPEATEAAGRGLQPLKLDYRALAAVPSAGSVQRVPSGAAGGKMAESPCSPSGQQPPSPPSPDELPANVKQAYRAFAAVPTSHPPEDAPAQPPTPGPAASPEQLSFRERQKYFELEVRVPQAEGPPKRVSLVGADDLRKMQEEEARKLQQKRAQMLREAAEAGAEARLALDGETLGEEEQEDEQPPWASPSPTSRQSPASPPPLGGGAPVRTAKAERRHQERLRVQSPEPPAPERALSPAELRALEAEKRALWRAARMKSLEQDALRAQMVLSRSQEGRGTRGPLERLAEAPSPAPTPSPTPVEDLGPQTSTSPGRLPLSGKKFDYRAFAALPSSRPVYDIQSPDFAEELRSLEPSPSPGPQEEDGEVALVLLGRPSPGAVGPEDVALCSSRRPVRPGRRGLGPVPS
T1 sequence (Q86UL8 whole entry, the tested form may be a part): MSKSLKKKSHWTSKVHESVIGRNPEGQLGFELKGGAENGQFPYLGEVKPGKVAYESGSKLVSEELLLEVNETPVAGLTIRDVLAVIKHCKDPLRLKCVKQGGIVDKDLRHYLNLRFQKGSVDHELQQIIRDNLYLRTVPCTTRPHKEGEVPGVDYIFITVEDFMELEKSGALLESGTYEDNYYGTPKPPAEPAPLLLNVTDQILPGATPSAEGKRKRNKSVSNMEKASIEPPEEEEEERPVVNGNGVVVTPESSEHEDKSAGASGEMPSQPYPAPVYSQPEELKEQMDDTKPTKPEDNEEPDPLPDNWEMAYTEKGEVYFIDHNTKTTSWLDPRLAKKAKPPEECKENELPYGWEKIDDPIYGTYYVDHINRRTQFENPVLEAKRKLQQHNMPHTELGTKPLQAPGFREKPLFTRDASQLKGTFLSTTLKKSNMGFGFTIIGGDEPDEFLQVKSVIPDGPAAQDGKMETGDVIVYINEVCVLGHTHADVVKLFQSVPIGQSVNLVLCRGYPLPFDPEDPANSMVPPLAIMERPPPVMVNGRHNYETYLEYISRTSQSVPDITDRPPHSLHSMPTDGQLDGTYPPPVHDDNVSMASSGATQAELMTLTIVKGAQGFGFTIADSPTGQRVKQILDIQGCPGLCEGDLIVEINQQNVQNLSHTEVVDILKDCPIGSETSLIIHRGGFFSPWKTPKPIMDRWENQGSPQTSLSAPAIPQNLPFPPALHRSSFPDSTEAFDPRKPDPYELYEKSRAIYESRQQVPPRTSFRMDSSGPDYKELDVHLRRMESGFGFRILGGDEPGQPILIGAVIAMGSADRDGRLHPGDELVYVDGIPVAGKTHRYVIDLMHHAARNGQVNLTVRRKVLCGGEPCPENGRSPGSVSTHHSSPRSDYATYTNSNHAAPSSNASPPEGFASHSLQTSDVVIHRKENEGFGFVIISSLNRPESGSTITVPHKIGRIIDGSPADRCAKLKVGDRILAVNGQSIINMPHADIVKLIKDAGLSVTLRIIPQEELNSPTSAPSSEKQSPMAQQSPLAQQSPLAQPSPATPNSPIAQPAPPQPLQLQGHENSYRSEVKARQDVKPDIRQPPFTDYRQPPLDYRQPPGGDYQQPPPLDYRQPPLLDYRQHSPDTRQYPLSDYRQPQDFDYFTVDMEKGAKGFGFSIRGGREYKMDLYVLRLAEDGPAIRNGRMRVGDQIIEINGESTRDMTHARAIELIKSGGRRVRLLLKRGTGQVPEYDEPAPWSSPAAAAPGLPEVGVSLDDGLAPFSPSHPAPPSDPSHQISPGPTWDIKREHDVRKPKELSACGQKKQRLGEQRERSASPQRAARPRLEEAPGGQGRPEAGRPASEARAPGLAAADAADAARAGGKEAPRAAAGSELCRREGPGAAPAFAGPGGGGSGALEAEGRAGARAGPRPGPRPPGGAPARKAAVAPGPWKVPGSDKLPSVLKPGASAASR
T2 sequence (Q13796 whole entry, the tested form may be a part): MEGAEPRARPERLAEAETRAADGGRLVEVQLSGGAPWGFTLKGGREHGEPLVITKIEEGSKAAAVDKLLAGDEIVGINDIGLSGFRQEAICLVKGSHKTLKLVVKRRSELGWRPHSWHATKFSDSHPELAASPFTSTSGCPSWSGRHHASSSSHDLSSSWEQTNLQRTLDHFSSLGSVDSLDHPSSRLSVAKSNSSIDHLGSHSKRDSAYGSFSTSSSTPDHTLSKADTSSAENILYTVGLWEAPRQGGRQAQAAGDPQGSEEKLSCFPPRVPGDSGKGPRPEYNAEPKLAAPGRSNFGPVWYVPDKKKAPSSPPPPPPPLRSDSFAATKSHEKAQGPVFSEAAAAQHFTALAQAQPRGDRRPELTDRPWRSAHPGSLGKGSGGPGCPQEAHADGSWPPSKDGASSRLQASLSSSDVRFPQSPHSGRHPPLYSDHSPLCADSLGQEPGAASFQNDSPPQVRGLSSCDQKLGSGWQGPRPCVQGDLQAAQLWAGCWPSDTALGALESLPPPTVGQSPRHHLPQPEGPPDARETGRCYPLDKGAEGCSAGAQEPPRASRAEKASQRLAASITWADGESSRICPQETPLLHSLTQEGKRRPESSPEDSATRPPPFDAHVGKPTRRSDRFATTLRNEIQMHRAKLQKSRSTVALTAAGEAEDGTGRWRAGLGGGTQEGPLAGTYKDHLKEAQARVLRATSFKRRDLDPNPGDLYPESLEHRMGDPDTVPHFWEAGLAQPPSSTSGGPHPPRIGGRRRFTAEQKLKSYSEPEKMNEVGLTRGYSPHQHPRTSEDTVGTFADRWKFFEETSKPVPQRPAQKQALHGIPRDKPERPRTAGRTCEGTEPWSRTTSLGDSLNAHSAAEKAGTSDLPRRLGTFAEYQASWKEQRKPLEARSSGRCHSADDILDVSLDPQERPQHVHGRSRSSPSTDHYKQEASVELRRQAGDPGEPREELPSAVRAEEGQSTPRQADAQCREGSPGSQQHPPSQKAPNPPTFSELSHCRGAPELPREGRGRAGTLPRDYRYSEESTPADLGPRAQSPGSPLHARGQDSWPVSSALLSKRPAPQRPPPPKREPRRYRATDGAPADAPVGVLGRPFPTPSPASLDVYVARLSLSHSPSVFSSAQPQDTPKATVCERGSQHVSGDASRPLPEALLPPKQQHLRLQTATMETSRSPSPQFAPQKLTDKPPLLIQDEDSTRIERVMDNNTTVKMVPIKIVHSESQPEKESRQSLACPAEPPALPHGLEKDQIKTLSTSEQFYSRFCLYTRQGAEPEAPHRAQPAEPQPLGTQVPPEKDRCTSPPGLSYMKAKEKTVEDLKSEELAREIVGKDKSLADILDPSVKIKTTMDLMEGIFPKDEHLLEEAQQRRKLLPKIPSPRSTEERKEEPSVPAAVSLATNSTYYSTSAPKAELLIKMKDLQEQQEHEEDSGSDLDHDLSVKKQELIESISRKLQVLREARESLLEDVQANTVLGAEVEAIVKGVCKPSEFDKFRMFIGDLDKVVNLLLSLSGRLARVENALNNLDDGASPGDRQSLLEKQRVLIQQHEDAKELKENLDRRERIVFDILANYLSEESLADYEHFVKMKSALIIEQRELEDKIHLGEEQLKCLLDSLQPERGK

Compound: CC[C@H](C)[C@H](NC(=O)[C@H](CCCCN)NC(=O)[C@@H](NC(=O)[C@H](CO)NC(=O)[C@@H]1CCCN1C(=O)[C@H](Cc1ccccc1)NC(=O)[C@@H](NC(=O)[C@@H](NC(=O)[C@H](CCCNC(=N)N)NC(=O)[C@H](CCC(=O)O)NC(=O)[C@H](CC(C)C)NC(=O)[C@H](CC(C)C)NC(=O)[C@H](CC(C)C)NC(=O)[C@@H](NC(=O)CNC(=O)[C@@H](NC(=O)CCCC[C@@H]1SC[C@@H]2NC(=O)N[C@@H]21)C(C)C)[C@@H](C)O)C(C)C)[C@@H](C)CC)C(C)C)C(=O)N[C@@H](C)C(=O)N[C@H](C(=O)N[C@@H](CC(C)C)C(=O)N[C@H](C(=O)O)C(C)C)[C@@H](C)O [Adenovirus E4 Type9]
- Classification ([2]; PDZ atrophin-1 interacting Protein, PDZ Domain 1, Protein Optimal Conc 0.5): 5 (A450 nm of 4 more than 2× repeated)
- Classification ([2]; PDZ atrophin-1 interacting Protein, PDZ Domain 3, Protein Optimal Conc 5): 4 (A450 nm 3-4)
- Kd ([1]; PDZ BAI-1, PDZ Domain 2, Protein Optimal Conc 0.3): 20 nM
- Kd ([1]; PDZ BAI-1, PDZ Domain 3, Protein Optimal Conc 0.5): 75 nM
- Kd ([1]; PDZ BAI-1, PDZ Domain 4, Protein Optimal Conc 0.3): 100 nM
- Kd ([1]; PDZ HEMBA 1003117, PDZ Domain 1, Protein Optimal Conc 5): 300 nM

Compound: CC[C@H](C)[C@H](NC(=O)[C@H](CC(=O)O)NC(=O)[C@H](CCC(=O)O)NC(=O)[C@H](CCCNC(=N)N)NC(=O)[C@@H](NC(=O)CCCC[C@@H]1SC[C@@H]2NC(=O)N[C@@H]21)[C@@H](C)O)C(=O)N[C@@H](Cc1ccc(O)cc1)C(=O)N[C@H](C(=O)N[C@@H](CC(N)=O)C(=O)N[C@@H](Cc1ccc(O)cc1)C(=O)N1CCC[C@H]1C(=O)N[C@H](C(=O)N[C@@H](Cc1ccccc1)C(=O)N[C@@H](CO)C(=O)N[C@@H](CCCNC(=N)N)C(=O)N[C@@H](CCCNC(=N)N)C(=O)N1CCC[C@H]1C(=O)N[C@@H](CCCCN)C(=O)N[C@H](C(=O)N[C@@H](CCCNC(=N)N)C(=O)N[C@H](C(=O)O)C(C)C)[C@@H](C)O)[C@@H](C)O)C(C)C [DNAM-1] (Biotin-TREDIYVNYPTFSRRPKTRV-OH; C-terminus assumed)
- Classification [2, 6]: 3 (A450 nm 2-3)
- Kd ([1]; PDZ BAI-1, PDZ Domain 2): 4000 nM

Compound: CC(C)C[C@H](NC(=O)[C@H](C)NC(=O)[C@@H](NC(=O)[C@H](CCC(=O)O)NC(=O)[C@H](CCCNC(=N)N)NC(=O)[C@H](CCCNC(=N)N)NC(=O)CNC(=O)[C@H](CCC(N)=O)NC(=O)[C@H](CC(C)C)NC(=O)[C@H](CCCNC(=N)N)NC(=O)CNC(=O)CNC(=O)[C@H](CCCNC(=N)N)NC(=O)[C@H](C)NC(=O)[C@H](CO)NC(=O)[C@H](CCCNC(=N)N)NC(=O)CNC(=O)CNC(=O)[C@H](C)NC(=O)[C@H](C)NC(=O)CCCC[C@@H]1SC[C@@H]2NC(=O)N[C@@H]21)[C@@H](C)O)C(=O)O [HPV E6 33 (modified)] (Biotin-AAGGRSARGGRLQGRRETAL-OH; C-terminus assumed)
- Classification [3]: 3 (A450 nm 2-3)
- Classification ([4]; PDZ KIAA0147, PDZ Domain 1): 5 (A450 nm of 4 more than 2× repeated)
- Classification ([4]; PDZ KIAA0147, PDZ Domain 3): 2 (A450 nm 1-2)
- Classification [2, 7]: 1 (A450 nm 0-1)
- Classification ([2]; PDZ atrophin-1 interacting Protein (Atrophin-1 Inter. Prot.), PDZ Domain 1): 4 (A450 nm 3-4)
- Classification [5]: 1 (A450 nm 0-1)

Compound: CC[C@H](C)[C@H](NC(=O)[C@H](CCC(N)=O)NC(=O)[C@@H](NC(=O)[C@H](Cc1c[nH]cn1)NC(=O)[C@H](CCC(N)=O)NC(=O)[C@H](CC(=O)O)NC(=O)[C@H](CCC(=O)O)NC(=O)[C@H](CC(=O)O)NC(=O)[C@H](Cc1ccccc1)NC(=O)[C@@H]1CCCN1C(=O)[C@H](CCC(=O)O)NC(=O)[C@H](CC(N)=O)NC(=O)[C@H](CCC(=O)O)NC(=O)[C@@H]1CCCN1C(=O)[C@H](CC(=O)O)NC(=O)[C@H](CO)NC(=O)[C@H](CC(=O)O)NC(=O)CCCC[C@@H]1SC[C@@H]2NC(=O)N[C@@H]21)[C@@H](C)O)C(=O)N[C@H](C(=O)N[C@@H](CCCCN)C(=O)N[C@H](C(=O)O)C(C)C)[C@@H](C)O [PTEN]
- Classification [2, 7]: 2 (A450 nm 1-2)
- Kd ([1]; PDZ SHANK, PDZ Domain 1): 1500 nM

Second part, the compound after the results:

- Kd ([1]; PDZ BAI-1, PDZ Domain 3): 2000 nM
Compound: CC(C)C[C@H](NC(=O)[C@H](CC(C)C)NC(=O)[C@@H](NC(=O)[C@H](CC(=O)O)NC(=O)CCCC[C@@H]1SC[C@@H]2NC(=O)N[C@@H]21)[C@@H](C)O)C(=O)N[C@@H](CC(C)C)C(=O)N[C@H](C(=O)N[C@@H](CCC(=O)O)C(=O)N[C@@H](CC(N)=O)C(=O)N[C@@H](CCC(=O)O)C(=O)NCC(=O)N[C@@H](CC(=O)O)C(=O)N[C@@H](CCCCN)C(=O)N[C@H](C(=O)N[C@@H](CCC(=O)O)C(=O)N[C@@H](CCC(=O)O)C(=O)N[C@@H](CCC(N)=O)C(=O)N[C@H](C(=O)N[C@@H](CO)C(=O)N[C@@H](Cc1ccc(O)cc1)C(=O)N[C@H](C(=O)O)C(C)C)C(C)C)[C@@H](C)O)[C@@H](C)O [5H2B_HUMAN] (Biotin-DTLLLTENEGDKTEEQVSYV-OH; C-terminus assumed)

- Kd ([1]; PDZ HEMBA 1003117, PDZ Domain 1): 300 nM
Compound: CC(C)C[C@H](NC(=O)[C@H](Cc1c[nH]c2ccccc12)NC(=O)[C@H](Cc1c[nH]cn1)NC(=O)[C@H](CCCNC(=N)N)NC(=O)[C@H](CC(C)C)NC(=O)[C@@H](NC(=O)[C@H](Cc1ccccc1)NC(=O)[C@H](CCC(N)=O)NC(=O)[C@H](CCCNC(=N)N)NC(=O)[C@@H](NC(=O)[C@H](CCC(=O)O)NC(=O)CNC(=O)[C@H](CCCNC(=N)N)NC(=O)[C@H](CC(=O)O)NC(=O)[C@@H](NC(=O)[C@H](CC(C)C)NC(=O)[C@H](CCC(=O)O)NC(=O)[C@H](CCCNC(=N)N)NC(=O)CCCC[C@@H]1SC[C@@H]2NC(=O)N[C@@H]21)C(C)C)C(C)C)[C@@H](C)O)C(=O)N[C@@H](CCCCN)C(=O)N[C@H](C(=O)O)C(C)C [Dopamine transporter (Na+-dependent)] (Biotin-RELVDRGEVRQFTLRHWLKV-OH; C-terminus assumed)

- Classification [2, 6]: 2 (A450 nm 1-2)
- Kd ([1]; PDZ SHANK, PDZ Domain 1): 300 nM
Compound: CC(C)C[C@H](NC(=O)CNC(=O)[C@@H](NC(=O)[C@H](CO)NC(=O)[C@H](CC(N)=O)NC(=O)[C@H](Cc1ccccc1)NC(=O)CNC(=O)[C@H](C)NC(=O)[C@H](C)NC(=O)[C@H](Cc1ccccc1)NC(=O)[C@@H](NC(=O)CCCC[C@@H]1SC[C@@H]2NC(=O)N[C@@H]21)[C@@H](C)O)[C@@H](C)O)C(=O)N1CCC[C@H]1C(=O)N[C@@H](Cc1c[nH]cn1)C(=O)N[C@@H](CO)C(=O)N[C@H](C(=O)N[C@H](C(=O)N[C@@H](CCCNC(=N)N)C(=O)N[C@H](C(=O)O)C(C)C)[C@@H](C)O)[C@@H](C)O [Neuroligin] (Biotin-TFAAGFNSTGLPHSTTRV-OH; C-terminus assumed)

- Classification [3]: 1 (A450 nm 0-1)
- Classification ([4]; PDZ KIAA0147, PDZ Domain 1): 5 (A450 nm of 4 more than 2× repeated)
- Classification ([4]; PDZ KIAA0147, PDZ Domain 2): 1 (A450 nm 0-1)
- Classification ([4]; PDZ KIAA0147, PDZ Domain 3): 1 (A450 nm 0-1)
- Classification [2, 7]: 5 (A450 nm of 4 more than 2× repeated)
- Classification [2, 6]: 5 (A450 nm of 4 more than 2× repeated)
- Classification ([2]; PDZ atrophin-1 interacting Protein, PDZ Domain 3): 2 (A450 nm 1-2)
- Classification [5]: 3 (A450 nm 2-3)
Compound: TQGFPGPATWRRISSLESEV
